Laboratory results taken from ChEMBL document CHEMBL6103545, “Discovery of GS-2278, a Potent and Selective LPAR1 Antagonist for the Treatment of Idiopathic Pulmonary Fibrosis” (J Med Chem, 2025).

How the values were obtained:
[1] = Plasma protein binding in human assessed as unbound fraction incubated for 24 hrs by equilibrium dialysis based Rapidfire-QToF mass spectrometric analysis; assay type: ADME, cell-free
[2] = Apparent permeability across apical to basolateral side in cMDR1 knockout MDCK-II cells incubated upto 240 mins by RF-QToF analysis; assay type: ADME, cell-based, Canis lupus familiaris; conditions: dog
[3] = Lipophilicity, logD of compound at pH 7.4; assay type: physicochemical; conditions: buffer
[4] = biological target: Lysophosphatidic acid receptor 1 (Homo sapiens, UniProt Q92633); assay: Antagonist activity at LPA1 receptor in serum starved human TWNT-4 cells assessed as nuclear translocation pre-incubated for 1 hr followed by LPA stimulation and measured after 30 min by MRTF-A assay; assay type: cell-based
Sequence of Lysophosphatidic acid receptor 1 (Q92633 whole entry): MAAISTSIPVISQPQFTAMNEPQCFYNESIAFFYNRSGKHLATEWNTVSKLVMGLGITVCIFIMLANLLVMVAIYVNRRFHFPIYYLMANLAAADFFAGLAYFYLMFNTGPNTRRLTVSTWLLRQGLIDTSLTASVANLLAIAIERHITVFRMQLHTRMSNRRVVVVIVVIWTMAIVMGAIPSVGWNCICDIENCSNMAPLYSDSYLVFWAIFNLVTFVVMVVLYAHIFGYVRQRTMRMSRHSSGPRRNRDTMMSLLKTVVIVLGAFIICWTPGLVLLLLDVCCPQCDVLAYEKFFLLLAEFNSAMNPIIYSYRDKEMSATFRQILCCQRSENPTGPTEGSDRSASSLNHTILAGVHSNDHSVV

| SMILES | fraction unbound at 24 h [1] | Papp A→B at 4 h [2] [×10⁻⁶ cm/s] | logD [3] | EC50 [4] [nM] |
| --- | --- | --- | --- | --- |
| Cc1nc(-c2nnn(C)c2NC(=O)O[C@H](C)c2cc(F)cnc2F)ccc1NS(C)(=O)=O | 0.15 | 8.8 | 1.7 | 124 |
| C[C@@H](OC(=O)Nc1c(-c2ccc(S(=O)(=O)NC3CC3)cc2)nnn1C)c1ccccc1Cl |  |  | 2.9 |  |
| C[C@@H](OC(=O)Nc1c(-c2ccc(NS(C)(=O)=O)cn2)nnn1C)c1cc(F)ccc1F | 0.18 | 16 | 2.1 | 122 |
| Cc1nc(-c2nnn(C)c2NC(=O)O[C@H](C)c2cccc(F)c2)ccc1NS(C)(=O)=O | 0.22 | 23 | 2.2 |  |
| Cc1nc(-c2nnn(C)c2NC(=O)O[C@H](C)c2ccccc2)ccc1NS(C)(=O)=O | 0.2 | 27 | 2.2 |  |
| C[C@@H](OC(=O)Nc1c(-c2ccc(NS(=O)(=O)C(C)(C)C)cc2)nnn1C)c1ccccc1Cl |  |  | 3 | > 10000 |
| C[C@@H](OC(=O)Nc1c(-c2ccc(NS(C)(=O)=O)cn2)nnn1C)c1ccccc1Cl |  | 19 | 2.2 | 30 |
| C[C@@H](OC(=O)Nc1c(-c2ccc(N)cn2)nnn1C)c1cc(F)cnc1F.Cl | 0.71 | 15 | 1.3 | 7920 |
| CC(=O)N(C)c1ccc(-c2nnn(C)c2NC(=O)O[C@H](C)c2ccccc2Cl)cc1 |  |  | 2.2 | 7530 |
| C[C@@H](OC(=O)Nc1c(-c2ccc(NS(C)(=O)=O)cn2)nnn1C)c1cccc(F)c1 | 0.25 | 15 | 1.9 | 522 |
| Cc1ccc(C(=O)Nc2ccc(-c3nnn(C)c3NC(=O)O[C@H](C)c3cc(F)cnc3F)nc2)cn1 | 0.32 | 7.2 | 1.7 | 109 |
| CNS(=O)(=O)c1ccc(-c2nnn(C)c2NC(=O)O[C@H](C)c2ccccc2Cl)cc1 |  |  | 2.6 | 893 |
| C[C@@H](OC(=O)Nc1c(-c2ccc(NS(C)(=O)=O)cc2)nnn1C)c1ccccc1Cl |  |  | 2.4 | 12 |
| C[C@@H](OC(=O)Nc1c(-c2ccc(NC(=O)C3(C(F)F)CC3)cn2)nnn1C)c1cc(F)cnc1F | 0.56 | 40 | 2.4 | 5250 |
| C[C@@H](OC(=O)Nc1c(-c2ccc(NC(=O)c3ccc(C(F)(F)F)nc3)cn2)nnn1C)c1cc(F)cnc1F | 0.15 | 14 | 2.7 | 25 |
| Cc1nc(-c2nnn(C)c2NC(=O)O[C@@H](c2ccccc2)C(F)(F)F)ccc1NS(C)(=O)=O | 0.2 | 18 | 2.5 | 45 |
| C[C@@H](OC(=O)Nc1c(-c2ccc(NS(=O)(=O)CC#N)cc2)nnn1C)c1ccccc1Cl |  |  | 2.2 | 32 |
| Cc1nc(-c2nnn(C)c2NC(=O)O[C@H](C)c2cc(F)ccc2F)ccc1NS(C)(=O)=O | 0.19 | 20 | 2.4 | 953 |
| C[C@@H](OC(=O)Nc1c(-c2ccc(NC(=O)C3CC(F)(F)C3)cn2)nnn1C)c1cc(F)cnc1F | 0.21 | 15 | 2.4 | 21 |
| C[C@@H](OC(=O)Nc1c(-c2ccc(NC(=O)C34CC(C#N)(C3)C4)cn2)nnn1C)c1cc(F)cnc1F | 0.31 | 8.3 | 2 | 51 |

| SMILES | fraction unbound at 24 h [1] | Papp A→B at 4 h [2] [×10⁻⁶ cm/s] | logD [3] | EC50 [4] [nM] |
| --- | --- | --- | --- | --- |
| C[C@@H](OC(=O)Nc1c(-c2ccc(NS(C)(=O)=O)cn2)nnn1C)c1ccccc1 | 0.27 | 13 | 1.9 |  |
| C[C@@H](OC(=O)Nc1c(-c2ccc(NS(C)(=O)=O)cn2)nnn1C)c1cc(F)cnc1Cl | 0.18 | 5.5 | 1.7 |  |
| Cc1nc(-c2nnn(C)c2NC(=O)O[C@H](C)c2ccccc2Cl)ccc1NS(C)(=O)=O | 0.13 | 27 | 2.5 | 11 |
| C[C@@H](OC(=O)Nc1c(-c2ccc(NC(=O)C(F)(F)F)cc2)nnn1C)c1ccccc1Cl |  |  | 3.3 | 20 |
| C[C@@H](OC(=O)Nc1c(-c2ccc(NS(C)(=O)=O)cn2)nnn1C)c1cccnc1Cl | 0.26 | 2.8 | 1.3 | 108 |
| C[C@@H](OC(=O)Nc1c(-c2ccc(NC(=O)c3ccnc(C(F)(F)F)c3)cn2)nnn1C)c1cc(F)cnc1F | 0.14 | 4.6 | 2.7 |  |
| C[C@@H](OC(=O)Nc1c(-c2ccc(O)cc2)nnn1C)c1ccccc1Cl |  |  | 2.5 | 237 |
| Cn1nnc(-c2ccc(NS(C)(=O)=O)cn2)c1NC(=O)O[C@H](CF)c1ccccc1 | 0.27 | 5 | 1.6 | 81 |
| C[C@@H](OC(=O)Nc1c(-c2ccc(N)cc2)nnn1C)c1ccccc1Cl |  |  | 2.3 | 417 |
| Cc1nc(-c2nnn(C)c2NC(=O)O[C@H](CF)c2ccccc2)ccc1NS(C)(=O)=O | 0.29 | 17 | 1.9 | 31 |
| C[C@@H](OC(=O)Nc1c(-c2ccccc2)nnn1C)c1ccccc1Cl |  |  | 3.2 |  |
| C[C@@H](OC(=O)Nc1c(-c2ccc(NC(=O)[C@@H]3CC3(F)F)cn2)nnn1C)c1cc(F)cnc1F | 0.35 | 12 | 2.2 | 576 |
| CC(=O)Nc1ccc(-c2nnn(C)c2NC(=O)O[C@H](C)c2cc(F)cnc2F)nc1 | 0.36 | 7.7 | 1.3 | 1350 |
| C[C@@H](OC(=O)Nc1c(-c2ccc(NC(=O)C34CC(F)(C3)C4)cn2)nnn1C)c1cc(F)cnc1F | 0.33 | 11 | 2.3 | 77 |
| C[C@@H](OC(=O)Nc1c(-c2ccc(S(N)(=O)=O)cc2)nnn1C)c1ccccc1Cl |  |  | 2.2 |  |
| Cc1nc(-c2nnn(C)c2NC(=O)O[C@H](C)c2cc(F)cnc2Cl)ccc1NS(C)(=O)=O | 0.13 | 13 | 1.8 | 83 |
| C[C@@H](OC(=O)Nc1c(-c2ccc(N(C)S(C)(=O)=O)cc2)nnn1C)c1ccccc1Cl |  |  | 2.7 | 890 |
| C[C@@H](OC(=O)Nc1c(-c2ccc(NC(=O)C3(C#N)CC3)cn2)nnn1C)c1cc(F)cnc1F | 0.46 | 21 | 1.9 | 37 |
| Cc1nc(-c2nnn(C)c2NC(=O)O[C@H](C)c2cccnc2F)ccc1NS(C)(=O)=O | 0.38 | 5.6 | 1.4 | 1370 |
| C[C@@H](OC(=O)Nc1c(-c2ccc(NS(C)(=O)=O)cn2)nnn1C)c1cccnc1F | 0.3 | 4.4 | 1.1 | 186 |
